Measurements published in PMC11023938 (Nature, 2024).

Key:
[1] = test system: bone marrow-derived neutrophils; assay: Neutrophil transwell migration; format: cell-based, mouse; details: TSP-1 1, 10 or 100 nM
Description: Bone marrow cells were flushed from femora and tibiae of C57BL/6 J mice (8- to 12-week-old) with HBSS without Ca^2+ and Mg^2+ containing 2% FBS and 1 mM EDTA. Cell suspension was passed through a 70-μm strainer. Next, EasySep Mouse Neutrophil Enrichment Kit or EasySep Mouse Monocyte Isolation Kit ([sequence] Technologies) was used to isolate neutrophils or monocytes according to the manufacturer’s instructions. Neutrophils were resuspended in RPMI containing 100 units ml^−1 penicillin/streptomycin and 10% FBS for cell migration assay and cell death assay or 2% FBS for efferocytosis.
Assays were conducted using 6.5-mm-diameter culture plate inserts (Corning) with 5-μm and 3-μm pore sizes for macrophages and neutrophils, respectively. Macrophages (1 × 10^5) or neutrophils (3 × 10^5) in migration media (DMEM/F12 with 0.25% BSA) were added to the inserts. The lower chambers contained migration buffer alone or chemoattractant (mouse CCL2 10 ng ml^−1 for macrophages or mouse CXCL1/KC 150 ng ml^−1 for neutrophils, PeproTech) with or without CGRP. […] For neutrophils, cells that migrated into the lower chamber were collected and counted using a haemocytometer. The data are presented as the fold change, calculated by dividing the number of cells that migrated in response to treatments by the number of cells that migrated spontaneously (migration media only).

[2] = test system: bone marrow-derived macrophages; assay: Macrophage transwell migration; format: cell-based, mouse; details: TSP-1 1, 10 or 100 nM
Description: Assays were conducted using 6.5-mm-diameter culture plate inserts (Corning) with 5-μm and 3-μm pore sizes for macrophages and neutrophils, respectively. Macrophages (1 × 10^5) or neutrophils (3 × 10^5) in migration media (DMEM/F12 with 0.25% BSA) were added to the inserts. The lower chambers contained migration buffer alone or chemoattractant (mouse CCL2 10 ng ml^−1 for macrophages or mouse CXCL1/KC 150 ng ml^−1 for neutrophils, PeproTech) with or without CGRP. Cells were allowed to migrate through the insert membrane for 3-4 h at 37 °C with 5% CO2. For macrophages, the inserts were then fixed with 4% paraformaldehyde, and cells on the upper side were removed. DAPI (1 μg ml^−1) was used to stain cells on the bottom side, and they were counted using a fluorescent microscope. […] The data are presented as the fold change, calculated by dividing the number of cells that migrated in response to treatments by the number of cells that migrated spontaneously (migration media only).
After 24 h, cells were collected for the migration assay.

[3] = test system: bone marrow-isolated neutrophils; assay: Neutrophil cell death; format: cell-based, mouse; details: TSP-1 1, 10 or 100 nM, in the presence of inflammatory cytokines; dose-dependent
[4] = test system: bone marrow-derived macrophages; assay: Macrophage cell death; format: cell-based, mouse; details: TSP-1 1, 10 or 100 nM, in the presence of inflammatory cytokines; dose-dependent
Description: Bone marrow cells from 8- to 12-week-old C57BL/6 J mice were flushed, filtered and cultured in conditioned medium (DMEM/F12 with 10% heat-inactivated FBS, 100 units ml^−1 penicillin/streptomycin, and 20% L929 fibroblasts-conditioned medium) at 37 °C with 5% CO2. After 7–9 days, differentiated macrophages were collected and seeded in 12-well or 6-well plates. The next day, cells were treated with CGRP (1 or 20 nM, Tocris Bioscience, 83651-90-5) for 20 min before exposure to mouse IL-1 (5 ng ml^−1) and TNF (50 ng ml^−1), IL-4 (2 ng ml^−1) and IL-13 (2 ng ml^−1), or IL-10 (2 ng ml^−1) (PeproTech Inc) for 24 or 72 h. Macrophages were detached with TrypLE (Gibco) containing 3 mM EDTA, stained with LIVE/DEAD Aqua dye for 20 min on ice, and incubated with blocking solution (10 μg ml^−1 TruStain FcX anti-CD16/32 (clone 93, BioLegend)) for 20 min before staining with antibodies for 30 min on ice. Antibodies from BioLegend included PE anti-CD11b (clone M1/70, 1 μg ml^−1), BV711 anti-F4/80 (clone BM8, 2 μg ml^−1), APC anti-CD80 (clone 16-10A1, 0.5 μg ml^−1) and PE-Cyanine7 anti-CD206 (clone C068C2, 1 μg ml^−1). […] After washing with Perm buffer and staining buffer, cells were analysed using BD LSR Fortessa X-20 and FlowJo software (BD Biosciences). […]

[5] = test system: bone marrow-derived macrophages; assay: Macrophage efferocytosis of neutrophils; format: cell-based, mouse; details: macrophage treatment with TSP-1 1, 10 or 100 nM
Description: An efferocytosis assay kit (Cayman, 601770) was used following the manufacturer’s instructions. Neutrophils were labelled with CFSE and cultured in RPMI with 2% serum for 12 h to induce cell death. Bone marrow-derived macrophages cultured for 7 days were seeded at a density of 4 × 10^5 cells per well in a 6-well plate with DMEM/F12 containing 10% FBS and 100 units ml^−1 penicillin/streptomycin. Prior to the assay, macrophages were pre-treated with CGRP (1 or 20 nM) for 24 h. Macrophages were collected, labelled with CytoTell Blue, and then incubated with CFSE-labelled dead/dying neutrophils at different ratios (1:1, 1:2, and 1:4) at 37 °C for 15 min. The reaction was stopped by washing cells with ice-cold PBS containing 5% FBS and 1 mM EDTA. Cells were analysed with BD LSR Fortessa X-20 and FlowJo software (BD Biosciences). Macrophages were identified by CytoTell Blue-positive staining, and the efferocytosis index was calculated as the percentage of CFSE-positive cells in CytoTell Blue-labelled macrophages.
For the efferocytosis assay, cells were cultured with 1 nM CGRP immediately after transfection. After 24 h, cells were collected and co-cultured with dead or dying neutrophils.

[6] = test system: Nav1.8^cre/Rosa26^DTA mice; assay: Flow cytometry of injured skin and muscle, nociceptor-ablated mice; format: in vivo, mouse; details: TSP-1 total 10 μg
Description: Skin wounds were collected using an 8-mm biopsy punch, and muscle defects were dissected to isolate the quadriceps. Samples were minced with scissors and subjected to two serial digestions with collagenase XI (1 mg ml^−1) at 37 °C (two times 20 min for skin, two times 15 min for muscle). After the first digestion, the supernatant was collected and mixed with neutralization buffer (DMEM/F12 with 10% FBS and 5 mM EDTA). The first collection was kept on ice and fresh collagenase XI was added to the undigested tissue for the second digestion. Digestion mixtures were passed through a 70-μm cell strainer and stained with LIVE/DEAD Fixable Aqua dye (Thermo Fisher Scientific, 1:400 dilution in PBS) for 20 min on ice. Cells were incubated with TruStain FcX anti-CD16/32 (10 μg ml^−1; clone 93, BioLegend) diluted in staining buffer (5% FBS and 2 mM EDTA in PBS) for 20 min and subsequently incubated with primary antibodies in staining buffer for a further 30 min on ice. The following anti-mouse antibodies from BioLegend were used: FITC anti-CD11b (clone M1/70, 6.6 μg ml^−1) or BV711 anti-CD11b (clone M1/70, 2 μg ml^−1); PE anti-F4/80 (clone BM8, 4 μg ml^−1); BV421 anti-Ly6G (clone 1A8, 2 μg ml^−1); BV711 anti-Ly6C (clone HK1.4, 1 μg ml^−1) or FITC anti-Ly6C (clone HK1.4, 5 μg ml^−1); PE-Cyanine7 anti-CD206 (clone C068C2, 2.6 μg ml^−1); APC anti-CD206 (clone C068C2, 2 μg ml^−^1); PE-Cyanine7 anti-CD3 (clone 17A2, 4 μg ml^−1); BV711 anti-CD3 (clone 17A2, 4 μg ml^−1);APC anti-CD4 (clone GK1.5, 2 μg ml^−1); BV421 anti-CD8 (clone 53-6.7, 2 μg ml^−1); PE anti-TCR β (clone H57-597, 2 μg ml^−1); APC/Fire 750 anti-TCR γ/δ (clone GL3, 2 μg ml^−1); PE-Cyanine anti-CD11c (clone N418, 2 μg ml^−1); APC/Fire 750 anti-MHC Class II (clone M5/114.15.2, 2 μg ml^−1). Cells were washed once with a large volume of staining buffer before analysis with BD LSR Fortessa X-20 and FlowJo software (BD Biosciences).

[7] = skin wound borders D1 and D3 or muscle defect via fibrin hydrogel, day 3 post-injury

thrombospondin-1 [TSP-1]
neutrophil migration towards CXCL1 [1]: inhibition of migration
macrophage migration towards CCL2 [2]: inhibition of migration
neutrophil death [3]: accelerated death
macrophage death [4]: accelerated death
efferocytosis of neutrophils by macrophages [5]: greatly enhanced
CD206 expression in injured tissue ([6]; skin and muscle injuries, day 14 post-injury): increase
number of inflammatory monocytes/macrophages (Ly6C^hi) in injured tissue [6, 7]: reduced numbers
number of monocytes/macrophages in injured tissue [6, 7]: reduced numbers
number of neutrophils in injured tissue [6, 7]: reduced numbers
